{
  "source": "patent US8759073B2",
  "about": "“Method for effectively controlling harmful organisms in large-scale culture of microalgae” (ENN Science & Technology Development Co., Ltd., priority 2009, dated 2014)",
  "key": {"Amoeba": {"test_system": "Amoeba", "assay": "Control of Amoeba contamination in microalgae culture, microscope examination", "format": "cell-based, Amoeba sp.", "description": "If the contaminated alga liquid is identified as alkali tolerant contamination, CO2 is aerated into the culture system of microalgae, so as to lower the pH value. At this time, the appearance of the algae cells and the harmful organisms are observed under a microscope. When the harmful organisms has been inhibited or inactivated, air is sufficiently aerated into the culture system and the pH value is adjusted back to the optimal pH suitable for microalgae growth. In an embodiment, the concentration of CO2 reaches saturation. In an alternative embodiment, the pH value can be adjusted back to the optimal pH suitable for microalgae growth with ammonia (one of the nitrogen sources used by microalgae). In an embodiment, the pH value can be adjusted back to the optimal pH suitable for microalgae growth with NaOH. In an embodiment, the used NaOH is 1M NaOH. In an embodiment, the pH is 5.6-5.7 in the alga culture system with a saturated concentration of CO2. In an alternative embodiment, if the algae are marine algae (such as in the case of Dunaliella tertiolecta), the aerated CO2 can maintain pH within the range of 6.0-6.5. After that, if the harmful organisms have been determined to be in control (for instance, most of Amoeba have become spherical), salinity is reduced by diluting with water (salinity is the ratio between the mass of the solute in seawater and the mass of seawater), followed by sufficient aeration with air, so as to adjust the pH and salinity to a condition suitable for alga growth. In an embodiment (for example, in the case that the alga is Nannochloris sp. or Dunaliella tertiolecta), CO2 can be aerated intermittently. In an embodiment, CO2 can be aerated at an interval of two hours. In an embodiment, the culture system is maintained at pH 6.0-6.5 for 2 days, followed by decreasing 1% of the salinity by adding water. In an embodiment, the culture system is maintained with saturated CO2 for about 28 hours. In an embodiment, CO2 is kept at saturation for about 27 hours in the culture system. In an embodiment, saturated CO2 is aerated continuously into the culture system for 36 hours. In an embodiment, CO2 is aerated periodically at an interval of 2 hours (pH is in the range of 5.0-8.5), for 2 days.\nMicroscope examination is always used as one of the bases for determining the growth status in the process of microalgae culture. As a result, all the early-stage contamination is found by microscope examination. For example, when the alga liquid without microscope examination is contaminated, it's color generally changes into e.g. brown or brown spots are observed on the wall of the reactor, etc. However the contamination has become severer once the color change is observed directly.\nSalinity was reduced by 1% (e.g. from 9% to 8%) by way of dilution with water. Then air was sufficiently aerated.\nChlorella sp. […] Modified SM medium (see Table 2) was used. […] Then air was sufficiently aerated.\nChlorococcum sp. […] Modified BG11 medium (see Table 3) was used. […] CO2 was aerated continuously.\nChlorococcum sp. […] Modified BG11 medium (see Table 3) was used. […] Then air was sufficiently aerated. Eighteen hours later, Chlorococcum sp. could resume to grow.\nNannochloris sp. […] Modified BG11 medium (see Table 4) was used. […] Then CO2 was aerated periodically at an interval of 2 hours (pH ranged within 5.0-8.5).\nModified SM (see Table 2) was used. […] Then air was sufficiently aerated. Twenty-four hours later, the algae could resume to grow.\nThen air was sufficiently aerated. Eighteen hours later, Chlorococcum sp. could resume to grow.\nModified SM (see Table 2) was used. […] One hour later, CO2 was aerated to saturation for 23 hour continuously (about pH 5.8). […] Then air was sufficiently aerated. Twenty-four hours later, the algae could resume to grow."}, "Chlorella sp.": {"test_system": "Chlorella sp.", "assay": "Growth of cultured algae after treatment, 320 L bubbling reactor", "procedure": "pH of the normally cultured microalgae is adjusted into various ranges. The growth rate of the microalgae is measured and their appearance is observed under a microscope.\n(§1) Chlorella sp. (purchased from FACHB collection, Wuhan Aquatic Research Institure, Chinses Academy of Sciences) was cultured in a 320 L bubbling reactor (manufactured by Longfang Jiangchuan plexiglass Co. Ltd., φ300 mm×2 m) out-of-doors under a sunlight film. The culture condition included: a temperature of about 25 °C, a humidity of 60%-80%, and an illumination of 8000-20000 lux. Modified SM (see Table 2) (pH 7.0-9.0 for the normal culture) was used. […] Then, CO2 was aerated to adjust pH to be 7.0-8.0.\nChlorella sp. (purchased from FACHB collection, Wuhan Aquatic Research Institure, Chinses Academy of Sciences) was cultured in a 320 L bubbling reactor (manufactured by Longfang Jiangchuan plexiglass Co. Ltd., φ300 mm×2 m) out-of-doors under a sunlight film. Modified SM medium (see Table 2) (pH 7.0-9.0 for the normal culture) was used. The culture condition included: a temperature of about 25 °C, a humidity of 60%-80%, and an illumination of 8000-20000 lux. […] Then air was sufficiently aerated, and pH was raised to 7.0-7.5 after 4 hours.\nChlorella sp. (obtained from Jinan University) was cultured in a 320 L bubbling reactor (manufactured by Longfang Jiangchuan plexiglass Co. Ltd., φ300 mm×2 m) out-of-doors under a sunlight film (with a temperature of about 25 °C, a humidity of 60%-80%, and an illumination of 8000-20000 lux). Modified SM medium (see Table 2) was used. When Amoeba, Oxyrrhis and ciliate contaminations were observed is with an oil immersion lens (Nikon fluorescent invert microscope Ti series), pH was adjusted to 11.0-11.8 with 1M NaOH. […] Then, CO2 was aerated continuously to saturation (pH 5.6). […] Then air was sufficiently aerated.\nas §1, with “film. Modified SM medium (see Table 2) (pH 7.0-9.0 for the normal culture) was used.” for “film.”, “lux.” for “lux. Modified SM (see Table 2) (pH 7.0-9.0 for the normal culture) was used.”, “Then” for “Then,”, “aerated and pH was adjusted” for “aerated”, “to” for “to adjust pH to be”\nChlorella sp. (obtained from Jinan University) was cultured in a 320 L bubbling reactor (manufactured by Longfang Jiangchuan plexiglass Co. Ltd., φ300 mm×2 m) out-of-doors under a sunlight film (with a temperature of about 25 °C, a humidity of 60%-80%, and an illumination of 8000-20000 lux). Modified SM medium (see Table 2) was used. […] Then CO2 was aerated to saturation (pH 5.6) for 24 hours continuously. […] Then air was sufficiently aerated."}},
  "note": "“Also recorded” adds a separate entry of the source.",
  "data": [
    {"molecule": "O=C=O", "note": "[CO2, carbon dioxide]", "values": [
      {"measurement": "Amoeba, result of microscope examination", "setting": "Amoeba; Example 1, Dunaliella tertiolecta culture, CO2 aerated intermittently, pH 6.0-6.5, two days", "value": "most Amoebae were found to become spherical"},
      {"measurement": "Amoeba, result of microscope examination", "setting": "Amoeba; Example 1, after CO2 pH 6.0-6.5 two days, salinity reduced by 1%, air aerated, twenty-four hours later", "value": "almost no Amoeba"},
      {"measurement": "Amoeba, result of microscope examination", "setting": "Amoeba; Example 3, Chlorella sp. culture, CO2 aerated continuously, saturated, pH 5.6-5.7, one hour", "value": "most Amoebae were found to become spherical and lose activity"},
      {"measurement": "Amoeba, result of microscope examination", "setting": "Amoeba; Example 3, saturated CO2, twenty-seven hours after the first hour (about 28 hours)", "value": "almost no intact Amoeba was observed; also recorded: almost no Amoeba was found"},
      {"measurement": "Amoeba, result of microscope examination", "setting": "Amoeba; Example 4, after 1M NaOH pH 11.0-11.8 1 h, CO2 to saturation (pH 5.6) 24 hours", "value": "no Amoeba"},
      {"measurement": "Amoeba, result of microscope examination", "setting": "Amoeba; Example 5, Chlorococcum sp. culture, CO2 saturated, pH about 5.6-5.7, one hour", "value": "most Amoeba turned into spherical, were inactivated and could not change shape or move"},
      {"measurement": "Amoeba, result of microscope examination", "setting": "Amoeba; Example 5, saturated CO2, twenty-seven hours later", "value": "almost no intact Amoeba were observed"},
      {"measurement": "Amoeba, result of microscope examination", "setting": "Amoeba; Example 7, after 1M NaOH pH 11.5-12.0 1 h, CO2 to saturation (about pH 5.6) 24 hour", "value": "no Amoeba"},
      {"measurement": "Amoeba, result of microscope examination", "setting": "Amoeba; Example 9, Nannochloris sp. culture, CO2 aerated periodically at an interval of 2 hours (pH 5.0-8.5), two days", "value": "no Amoeba was observed; also recorded: essentially in control"},
      {"measurement": "Amoeba, result of microscope examination", "setting": "Amoeba; Example 10, Spirulina maxima culture, after 1M NaOH pH 11.5-12.0 1 h, CO2 to saturation (about pH 5.8) 23 hour", "value": "no Amoeba"},
      {"measurement": "Amoeba, result of microscope examination", "setting": "Amoeba; Example 12, after 1M ammonia pH 9.0 1 h, CO2 to saturation (pH 5.6) 24 hours", "value": "no Amoeba"},
      {"measurement": "Amoeba, result of microscope examination", "setting": "Amoeba; Example 14, after 1M ammonia pH 9.0 1 h, CO2 to saturation (about pH 5.6) 24 hour", "value": "no Amoeba"},
      {"measurement": "Amoeba, result of microscope examination", "setting": "Amoeba; Example 15, Spirulina maxima culture, after 1M ammonia pH 10.0 1 h, CO2 to saturation (about pH 5.8) 23 hour", "value": "no Amoeba"},
      {"measurement": "growth of the algae", "setting": "Chlorella sp.", "value": "almost not affected"},
      {"measurement": "time until algae started to grow (FIG. 4)", "setting": "Chlorella sp.", "value": "About 28 hours"},
      {"measurement": "time until algae started to grow after recovery of pH7.0 or above", "setting": "Chlorella sp.; pH 7", "value": 24, "unit": "hours"},
      {"measurement": "time until algae resumed to grow after air aeration", "setting": "Chlorella sp.; pH 9", "value": "Twenty-four"}
    ]}
  ]
}
